Data from ChEMBL document CHEMBL1201862, “PubChem BioAssay data set” (2004).
Calls of active or inactive are those of the source.

Experiments:
[1] = biological target: Dual specificity protein kinase CLK4 (Homo sapiens, UniProt Q9HAZ1); type: functional
[2] = biological target: Serine/threonine-protein kinase pim-1 (Homo sapiens, UniProt P11309); type: functional
[3] = biological target: Mitogen-activated protein kinase kinase kinase kinase 4 (Homo sapiens, UniProt O95819); type: functional
[4] = biological target: cAMP-dependent protein kinase catalytic subunit alpha (Homo sapiens, UniProt P17612); type: functional
[5] = biological target: Interleukin-1 receptor-associated kinase 4 (Homo sapiens, UniProt Q9NWZ3); type: functional
[6] = biological target: Glycogen synthase kinase-3 beta (Homo sapiens, UniProt P49841); type: functional;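 note: value comes from a broad kinome profiling panel, with GSK3B as the panel member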
[7] = biological target: Cell division cycle 7-related protein kinase (Homo sapiens, UniProt O00311); type: functional;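 note: value obtained from a kinome-wide kinase panel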
[8] = biological target: Homeodomain-interacting protein kinase 2 (Homo sapiens, UniProt Q9H2X6); type: functional;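 note: measured within a kinome-wide kinase profiling panel, HIPK2 being one panel member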
[9] = biological target: Botulinum neurotoxin type F (Clostridium botulinum, UniProt P30996); assay: High-throughput multiplex microsphere dose response for inhibitors of toxin protease, specifically Botulinum neurotoxin light chain F protease, compounds from Cherry Pick 02.; type: functional; settings: read-out: EC50_MICROM
[10] = HeLa cell cytotoxicity, dose response, cytotoxicity control for MgcRacGAP inhibitor project (AID 624300); type: functional
Nonstructural protein 1 = Nonstructural protein 1 (Influenza A virus, UniProt Q194T2); type: functional, Influenza A virus (A/California/07/2009(H1N1))
[11] = biological target: T1, Rac GTPase-activating protein 1 (Homo sapiens, UniProt Q9H0H5); assay: MgcRacGAP GTPase-activating activity inhibitors, confirmation, biochemical, ADP Hunter fluorescence, primary and confirmatory (AID 624330); type: functional
T1 sequence (Q9H0H5 whole entry): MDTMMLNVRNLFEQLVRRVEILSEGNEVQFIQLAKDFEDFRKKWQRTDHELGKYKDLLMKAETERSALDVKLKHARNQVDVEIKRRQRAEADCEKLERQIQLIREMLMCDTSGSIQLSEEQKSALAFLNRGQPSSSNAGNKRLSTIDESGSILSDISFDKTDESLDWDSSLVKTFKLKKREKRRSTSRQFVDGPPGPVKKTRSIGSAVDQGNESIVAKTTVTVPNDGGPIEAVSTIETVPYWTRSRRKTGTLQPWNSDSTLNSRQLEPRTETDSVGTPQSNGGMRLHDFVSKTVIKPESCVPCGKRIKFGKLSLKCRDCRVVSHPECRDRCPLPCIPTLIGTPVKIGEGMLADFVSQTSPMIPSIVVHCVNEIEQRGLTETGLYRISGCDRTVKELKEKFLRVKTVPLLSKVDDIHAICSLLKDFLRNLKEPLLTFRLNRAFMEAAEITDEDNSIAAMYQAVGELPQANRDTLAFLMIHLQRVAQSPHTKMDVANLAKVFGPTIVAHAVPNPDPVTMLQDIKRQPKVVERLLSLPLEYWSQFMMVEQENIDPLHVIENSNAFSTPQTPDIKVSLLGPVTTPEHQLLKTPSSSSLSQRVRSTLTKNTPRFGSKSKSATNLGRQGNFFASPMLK

Lethal factor = Lethal factor (Bacillus anthracis, UniProt P15917); assay: High-throughput multiplex microsphere dose response for inhibitors of toxin protease, specifically Lethal Factor protease, compounds from Cherry Pick 02.; type: functional; settings: read-out: EC50_MICROM
[12] = biological target: Botulinum neurotoxin type A (Clostridium botulinum (strain Hall / ATCC 3502 / NCTC 13319 / Type A), UniProt P0DPI1); assay: High-throughput multiplex microsphere dose response for inhibitors of toxin protease, specifically Botulinum neurotoxin light chain A protease, compounds from Cherry Pick 02.; type: functional; settings: read-out: EC50_MICROM
[13] = biological target: T2, Histone-lysine N-methyltransferase NSD2 (Homo sapiens, UniProt O96028); type: biochemical
T2 sequence (O96028 whole entry): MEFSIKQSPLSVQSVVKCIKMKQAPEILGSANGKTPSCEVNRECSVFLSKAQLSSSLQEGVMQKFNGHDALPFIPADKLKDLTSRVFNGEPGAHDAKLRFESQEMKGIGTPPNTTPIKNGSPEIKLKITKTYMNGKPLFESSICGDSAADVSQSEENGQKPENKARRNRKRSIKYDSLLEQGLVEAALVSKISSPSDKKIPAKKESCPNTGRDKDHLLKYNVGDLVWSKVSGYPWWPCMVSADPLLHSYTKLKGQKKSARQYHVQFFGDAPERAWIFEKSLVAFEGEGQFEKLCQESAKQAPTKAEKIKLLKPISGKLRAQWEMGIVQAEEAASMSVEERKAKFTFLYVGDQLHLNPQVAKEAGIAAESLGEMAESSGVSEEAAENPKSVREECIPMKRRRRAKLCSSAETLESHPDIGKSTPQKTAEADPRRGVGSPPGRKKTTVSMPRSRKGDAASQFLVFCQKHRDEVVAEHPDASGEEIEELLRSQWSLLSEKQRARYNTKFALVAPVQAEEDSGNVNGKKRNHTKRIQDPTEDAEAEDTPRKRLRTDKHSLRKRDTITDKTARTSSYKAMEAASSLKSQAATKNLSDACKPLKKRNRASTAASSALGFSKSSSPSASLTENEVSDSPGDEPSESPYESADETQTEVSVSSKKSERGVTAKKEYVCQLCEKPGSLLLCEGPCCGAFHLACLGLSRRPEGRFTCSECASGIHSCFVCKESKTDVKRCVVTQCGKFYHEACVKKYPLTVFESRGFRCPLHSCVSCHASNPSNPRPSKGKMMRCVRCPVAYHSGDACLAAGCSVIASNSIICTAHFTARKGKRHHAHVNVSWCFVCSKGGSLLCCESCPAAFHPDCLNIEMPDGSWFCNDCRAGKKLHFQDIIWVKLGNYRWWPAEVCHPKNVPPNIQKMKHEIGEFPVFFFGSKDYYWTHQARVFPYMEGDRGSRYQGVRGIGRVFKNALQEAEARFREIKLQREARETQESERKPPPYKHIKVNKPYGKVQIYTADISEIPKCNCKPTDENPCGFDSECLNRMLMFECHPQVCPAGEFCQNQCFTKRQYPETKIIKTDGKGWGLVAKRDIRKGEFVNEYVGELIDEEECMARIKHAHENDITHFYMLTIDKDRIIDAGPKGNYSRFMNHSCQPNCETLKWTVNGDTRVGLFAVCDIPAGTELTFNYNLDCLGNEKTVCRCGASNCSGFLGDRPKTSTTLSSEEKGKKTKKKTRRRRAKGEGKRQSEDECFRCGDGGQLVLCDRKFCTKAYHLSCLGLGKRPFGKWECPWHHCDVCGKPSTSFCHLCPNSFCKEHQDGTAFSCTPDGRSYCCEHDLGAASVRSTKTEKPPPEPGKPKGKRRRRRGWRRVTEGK

Chain of Nonstructural protein 1 (Q194T2 whole entry): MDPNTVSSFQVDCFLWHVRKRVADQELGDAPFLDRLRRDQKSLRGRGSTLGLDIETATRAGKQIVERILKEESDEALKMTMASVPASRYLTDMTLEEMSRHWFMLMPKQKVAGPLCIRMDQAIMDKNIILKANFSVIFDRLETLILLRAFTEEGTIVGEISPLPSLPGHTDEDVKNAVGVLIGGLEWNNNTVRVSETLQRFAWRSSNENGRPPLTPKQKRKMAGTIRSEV
Chain of Mitogen-activated protein kinase kinase kinase kinase 4 (O95819 whole entry): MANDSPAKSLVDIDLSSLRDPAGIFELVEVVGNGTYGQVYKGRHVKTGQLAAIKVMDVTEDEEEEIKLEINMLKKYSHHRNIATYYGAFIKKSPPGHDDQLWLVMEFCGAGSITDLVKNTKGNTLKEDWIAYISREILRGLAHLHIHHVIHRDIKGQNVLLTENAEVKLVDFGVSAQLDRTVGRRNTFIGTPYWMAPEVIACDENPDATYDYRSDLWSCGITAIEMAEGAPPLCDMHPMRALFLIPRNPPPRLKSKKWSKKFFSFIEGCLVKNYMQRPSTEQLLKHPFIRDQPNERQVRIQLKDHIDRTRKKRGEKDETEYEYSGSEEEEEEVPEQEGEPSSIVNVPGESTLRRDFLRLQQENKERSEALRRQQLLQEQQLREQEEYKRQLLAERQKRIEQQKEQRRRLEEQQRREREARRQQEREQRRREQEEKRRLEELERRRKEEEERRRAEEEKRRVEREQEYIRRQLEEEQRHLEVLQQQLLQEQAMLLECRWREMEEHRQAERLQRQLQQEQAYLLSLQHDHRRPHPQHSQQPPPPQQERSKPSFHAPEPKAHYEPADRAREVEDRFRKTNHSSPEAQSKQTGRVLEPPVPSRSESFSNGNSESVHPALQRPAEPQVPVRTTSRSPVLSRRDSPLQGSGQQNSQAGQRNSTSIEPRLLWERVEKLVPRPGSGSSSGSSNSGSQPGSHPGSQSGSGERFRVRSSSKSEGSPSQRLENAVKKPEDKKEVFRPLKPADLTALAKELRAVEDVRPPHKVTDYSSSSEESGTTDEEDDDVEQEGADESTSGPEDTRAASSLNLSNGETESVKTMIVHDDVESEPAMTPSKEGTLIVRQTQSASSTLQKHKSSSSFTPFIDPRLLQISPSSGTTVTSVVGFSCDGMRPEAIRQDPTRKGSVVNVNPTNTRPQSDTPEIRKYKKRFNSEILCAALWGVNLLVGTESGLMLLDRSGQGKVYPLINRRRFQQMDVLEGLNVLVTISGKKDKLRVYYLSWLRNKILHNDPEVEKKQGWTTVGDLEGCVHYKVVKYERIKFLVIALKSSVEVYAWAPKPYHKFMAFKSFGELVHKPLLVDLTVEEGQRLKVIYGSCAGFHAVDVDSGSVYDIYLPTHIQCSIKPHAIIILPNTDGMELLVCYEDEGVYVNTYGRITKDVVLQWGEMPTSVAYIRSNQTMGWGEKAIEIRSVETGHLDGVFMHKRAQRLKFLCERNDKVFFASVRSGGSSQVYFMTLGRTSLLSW
Chain of Homeodomain-interacting protein kinase 2 (Q9H2X6 whole entry): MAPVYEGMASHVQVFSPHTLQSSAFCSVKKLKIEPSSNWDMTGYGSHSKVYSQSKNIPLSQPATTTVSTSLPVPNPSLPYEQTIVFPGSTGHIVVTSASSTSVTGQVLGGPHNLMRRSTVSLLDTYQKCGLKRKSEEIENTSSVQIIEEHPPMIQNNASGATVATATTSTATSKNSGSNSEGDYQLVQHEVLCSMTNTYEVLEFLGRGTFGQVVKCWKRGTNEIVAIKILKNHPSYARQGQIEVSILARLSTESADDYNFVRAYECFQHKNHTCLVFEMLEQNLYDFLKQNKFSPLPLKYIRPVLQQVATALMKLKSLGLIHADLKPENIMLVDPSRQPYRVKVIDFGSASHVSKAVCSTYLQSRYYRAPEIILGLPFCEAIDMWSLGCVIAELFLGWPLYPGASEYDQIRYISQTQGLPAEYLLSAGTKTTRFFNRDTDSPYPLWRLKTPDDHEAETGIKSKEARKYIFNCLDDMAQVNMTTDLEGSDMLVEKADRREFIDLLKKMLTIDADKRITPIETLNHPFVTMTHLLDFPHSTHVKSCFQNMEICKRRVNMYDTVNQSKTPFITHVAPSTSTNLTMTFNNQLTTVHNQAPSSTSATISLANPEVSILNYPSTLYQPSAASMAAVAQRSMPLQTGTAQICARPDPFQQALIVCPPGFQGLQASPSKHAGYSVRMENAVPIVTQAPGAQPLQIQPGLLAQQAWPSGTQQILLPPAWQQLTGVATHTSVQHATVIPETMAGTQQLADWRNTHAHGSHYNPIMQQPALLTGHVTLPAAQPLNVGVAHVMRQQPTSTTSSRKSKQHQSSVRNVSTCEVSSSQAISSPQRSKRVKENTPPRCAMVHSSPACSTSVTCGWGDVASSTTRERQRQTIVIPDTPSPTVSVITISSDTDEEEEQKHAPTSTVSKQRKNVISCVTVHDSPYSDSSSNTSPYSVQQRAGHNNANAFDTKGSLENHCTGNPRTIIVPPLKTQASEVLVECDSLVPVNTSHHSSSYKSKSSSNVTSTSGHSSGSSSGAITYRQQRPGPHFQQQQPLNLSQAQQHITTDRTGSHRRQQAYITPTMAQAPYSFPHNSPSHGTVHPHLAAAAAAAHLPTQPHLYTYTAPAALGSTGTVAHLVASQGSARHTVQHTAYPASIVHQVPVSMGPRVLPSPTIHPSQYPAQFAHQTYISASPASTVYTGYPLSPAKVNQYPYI
Chain of Botulinum neurotoxin type A (P0DPI1 2-448 limits assumed): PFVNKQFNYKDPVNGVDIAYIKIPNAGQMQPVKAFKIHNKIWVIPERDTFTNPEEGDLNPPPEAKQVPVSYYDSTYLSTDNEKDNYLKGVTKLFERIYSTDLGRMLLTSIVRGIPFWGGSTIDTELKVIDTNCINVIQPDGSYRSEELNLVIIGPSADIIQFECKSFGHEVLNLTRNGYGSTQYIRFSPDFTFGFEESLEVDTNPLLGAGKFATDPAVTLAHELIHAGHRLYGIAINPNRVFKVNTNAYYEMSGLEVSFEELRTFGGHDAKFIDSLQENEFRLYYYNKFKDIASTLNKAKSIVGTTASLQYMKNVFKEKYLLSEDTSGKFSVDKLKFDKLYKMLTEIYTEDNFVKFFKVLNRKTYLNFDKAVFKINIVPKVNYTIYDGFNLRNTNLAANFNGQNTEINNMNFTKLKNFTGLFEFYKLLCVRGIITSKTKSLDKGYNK
Chain of Serine/threonine-protein kinase pim-1 (P11309 whole entry): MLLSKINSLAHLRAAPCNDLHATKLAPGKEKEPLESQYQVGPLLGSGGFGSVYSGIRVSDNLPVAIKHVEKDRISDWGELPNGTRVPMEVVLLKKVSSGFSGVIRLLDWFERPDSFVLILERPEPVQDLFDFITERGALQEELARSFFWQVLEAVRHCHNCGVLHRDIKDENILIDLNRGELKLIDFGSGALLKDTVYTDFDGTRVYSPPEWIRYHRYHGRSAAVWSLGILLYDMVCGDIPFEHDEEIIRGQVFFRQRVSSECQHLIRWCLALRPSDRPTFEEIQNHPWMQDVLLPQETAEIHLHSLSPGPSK
Chain of Interleukin-1 receptor-associated kinase 4 (Q9NWZ3 whole entry): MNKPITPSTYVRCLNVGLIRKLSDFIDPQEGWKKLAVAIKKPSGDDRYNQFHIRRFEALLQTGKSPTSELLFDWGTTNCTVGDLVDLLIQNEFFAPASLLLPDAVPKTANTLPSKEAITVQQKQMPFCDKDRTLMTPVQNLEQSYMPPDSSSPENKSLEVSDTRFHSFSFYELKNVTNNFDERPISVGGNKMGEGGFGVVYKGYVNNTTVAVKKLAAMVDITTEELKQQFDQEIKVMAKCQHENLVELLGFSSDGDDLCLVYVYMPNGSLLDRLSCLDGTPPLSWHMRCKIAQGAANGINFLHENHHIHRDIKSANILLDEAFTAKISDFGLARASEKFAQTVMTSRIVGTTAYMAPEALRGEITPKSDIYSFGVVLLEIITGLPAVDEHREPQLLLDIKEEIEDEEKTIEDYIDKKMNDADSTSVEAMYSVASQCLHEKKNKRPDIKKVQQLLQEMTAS
Chain of Lethal factor (P15917 whole entry): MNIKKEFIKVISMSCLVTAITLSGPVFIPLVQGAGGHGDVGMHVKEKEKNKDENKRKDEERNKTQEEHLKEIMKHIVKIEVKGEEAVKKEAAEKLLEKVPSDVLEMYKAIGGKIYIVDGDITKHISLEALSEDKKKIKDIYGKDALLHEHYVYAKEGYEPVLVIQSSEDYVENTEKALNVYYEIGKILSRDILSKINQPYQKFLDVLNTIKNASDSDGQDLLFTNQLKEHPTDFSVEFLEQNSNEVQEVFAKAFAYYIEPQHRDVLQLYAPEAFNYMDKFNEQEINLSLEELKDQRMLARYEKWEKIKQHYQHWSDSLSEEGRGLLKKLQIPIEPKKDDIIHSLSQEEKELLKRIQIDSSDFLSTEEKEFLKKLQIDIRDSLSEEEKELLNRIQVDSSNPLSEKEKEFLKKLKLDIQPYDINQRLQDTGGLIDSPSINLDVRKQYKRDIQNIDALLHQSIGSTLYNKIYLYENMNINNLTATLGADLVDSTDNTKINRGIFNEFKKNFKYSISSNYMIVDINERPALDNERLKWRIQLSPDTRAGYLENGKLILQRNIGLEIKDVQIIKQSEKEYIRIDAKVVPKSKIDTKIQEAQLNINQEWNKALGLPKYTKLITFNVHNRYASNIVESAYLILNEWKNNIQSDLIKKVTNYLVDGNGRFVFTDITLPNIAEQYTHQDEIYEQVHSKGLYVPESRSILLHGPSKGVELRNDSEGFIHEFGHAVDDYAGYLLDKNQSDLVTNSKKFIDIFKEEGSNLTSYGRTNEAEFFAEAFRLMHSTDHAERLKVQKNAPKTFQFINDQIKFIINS

## COCCN(CCOC)c1cc(-c2c[nH]c3ncccc23)cc(Cl)n1
[1]
  Ki: 10 nM (active)
[2]
  Ki: 1260 nM (active)
[3]
  Ki: 20 nM (active)
[4]
  Ki: 501 nM (active)
[5]
  Ki: 2510 nM (active)
[6]
  Ki: 1000 nM (active)
[7]
  Ki: 10 nM (active)
[8]
  Ki: 251 nM (active)

## CN(C)c1ccc(/C=C2/C[N+](C)(C)C/C(=C/c3ccc(N(C)C)cc3)C2=O)cc1
[9]
  EC50: > 20000 nM (inactive)
[10]
  CC50: 100000 nM (active)
Nonstructural protein 1
  IC50: 6590 nM (active)
[11]
  IC50: 82900 nM (active)
Lethal factor
  EC50: 600 nM (active)
[12]
  EC50: 1600 nM (active)
[13]
  AC50: 11900 nM (active)
